Assay results as given in the supplement of paper PMC10307832.

Key:
Assay in all cases: relative viability (nuclei count vs DMSO), 5 days (fraction); higher = more cells survive
[1] = compound: COc1cc2nc(N3CCCN(C)CC3)nc(NC3CCN(Cc4ccccc4)CC3)c2cc1OC + Cc1nc(NC(=O)N2CCC[C@H]2C(N)=O)sc1-c1ccnc(C(C)(C)C(F)(F)F)c1 [Alpelisib] (partner 2 µM)
Method in brief: (§1)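 Lung cancer cell lines were seeded in 1536-well plates and dosed by pin tool the next day, with either a single drug or a fixed anchor-drug dose combined with five library-drug doses (not always all listed) spaced in √10 steps. Five days later, one step fixed the cells and stained their nuclei (final 0.05% Triton X-100, 1% formaldehyde, 1 ug/ml Hoechst), and nuclei were counted on 4× images. Relative viability is the nuclei count in treated wells divided by the count in vehicle wells, and each value is the median of duplicate plates.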

[2] = compound: COc1cc2nc(N3CCCN(C)CC3)nc(NC3CCN(Cc4ccccc4)CC3)c2cc1OC + O=C(c1cc(Cc2n[nH]c(=O)c3ccccc23)ccc1F)N1CCN(C(=O)C2CC2)CC1 [Olaparib] (partner 8 µM)
Method in brief: as §1

[3] = compound: Cc1cc([C@@H](C)Nc2ccccc2C(=O)O)c2nc(N3CCOCC3)cc(=O)n2c1 [AZD6482] + Cc1nc(Nc2ncc(C(=O)Nc3c(C)cccc3Cl)s2)cc(N2CCN(CCO)CC2)n1 [Dasatinib] (partner 0.075 µM)
Method in brief: as §1

[4] = compound: COc1cc2nc(N3CCCN(C)CC3)nc(NC3CCN(Cc4ccccc4)CC3)c2cc1OC + Nc1nc2[nH]cc(CCc3ccc(C(=O)N[C@@H](CCC(=O)O)C(=O)O)cc3)c2c(=O)[nH]1 [Pemetrexed] (partner 0.2 µM)
Method in brief: as §1

Cell Line: UMC-11
- relative viability ([1]; first compound 0.2 µM): 0.953
- relative viability ([1]; first compound 0.6325 µM): 0.973
- relative viability ([1]; first compound 2 µM): 1.15
- relative viability ([1]; first compound 6.325 µM): 1.01
- relative viability ([2]; first compound 0.2 µM): 0.38
- relative viability ([2]; first compound 0.6325 µM): 0.391
- relative viability ([2]; first compound 2 µM): 0.385
- relative viability ([2]; first compound 6.325 µM): 0.221
- relative viability ([3]; first compound 0.08 µM): 0.457
- relative viability ([3]; first compound 0.253 µM): 0.48
- relative viability ([3]; first compound 0.8 µM): 0.472
- relative viability ([3]; first compound 2.53 µM): 0.416
- relative viability ([3]; first compound 8 µM): 0.559
- relative viability ([4]; first compound 0.2 µM): 0.86
- relative viability ([4]; first compound 0.6325 µM): 0.773
- relative viability ([4]; first compound 2 µM): 0.834
- relative viability ([4]; first compound 6.325 µM): 0.588
